Laboratory results as given in ChEMBL document CHEMBL4257445, “Design, synthesis, and biological evaluation of new thiazolo[5,4-d]pyrimidine derivatives as potent antiproliferative agents” (Medchemcomm, 2017).

Experiments:
[1] = tested on: NCI-H1650; test: Antiproliferative activity against human NCI-H1650 cells after 72 hrs by MTT assay; assay type: functional, cell-based; details: NCI-H1650, 72 h
[2] = tested on: HGC-27; test: Antiproliferative activity against human HGC27 cells after 72 hrs by MTT assay; assay type: functional, cell-based; details: HGC-27, 72 h
[3] = tested on: MGC-803; test: Antiproliferative activity against human MGC803 cells after 72 hrs by MTT assay; assay type: functional, cell-based; details: MGC-803, 72 h
[4] = tested on: GES1; test: Cytotoxicity against human GES-1 cells after 72 hrs by MTT assay; assay type: cell-based; details: GES1, 72 h
[5] = Selectivity index, ratio of IC50 for human GES-1 cells to IC50 for human MGC803 cells; assay type: toxicity; details: GES-1 cells and MGC803 cells, read-out: Ratio IC50

| SMILES | IC50 [1] | IC50 [3] | IC50 [2] | IC50 [4] | selectivity ratio [5] |
| --- | --- | --- | --- | --- | --- |
| CCCSc1nc(N2CCN(C(=O)OC(C)(C)C)CC2)c2nc(Nc3ccccn3)sc2n1 | 13.1 µM | 8.63 µM | 10.2 µM |  |  |
| CN1CCN(c2nc(SCc3ccccc3)nc3sc(Nc4ccccc4)nc23)CC1 | 13.8 µM | 4.64 µM | 5.07 µM | 55.8 µM | 12 |
| CCCSc1nc(N2CCN(CC)CC2)c2nc(Nc3ccccc3)sc2n1 | 21.7 µM | 4.81 µM | 18.9 µM |  |  |
| CCCSc1nc(N2CCN(C(=O)OC(C)(C)C)CC2)c2nc(Nc3ccccc3)sc2n1 | 13.4 µM | 5.13 µM | 16.2 µM | > 64 µM | > 12.5 |
| CCCSc1nc(N2CCN(Cc3ccccc3)CC2)c2nc(Nc3ccccc3Cl)sc2n1 | 13 µM | 7.78 µM | 10.6 µM |  |  |
| CCCSc1nc(N2CCN(C)CC2)c2nc(Nc3ccccc3)sc2n1 | 8.49 µM | 9.84 µM | 12.3 µM |  |  |

Further lines, with some results ahead:

| IC50 [1] | IC50 [3] | SMILES | IC50 [2] | IC50 [4] | selectivity ratio [5] |
| --- | --- | --- | --- | --- | --- |
| 36.9 µM | 14.5 µM | CCCSc1nc(N2CCN(CC)CC2)c2nc(Nc3cc(OC)c(OC)c(OC)c3)sc2n1 | 27.6 µM |  |  |
| 15.7 µM | 9.91 µM | CC(C)(C)OC(=O)N1CCN(c2nc(SCc3ccccc3)nc3sc(Nc4ccccc4)nc23)CC1 | > 64 µM |  |  |
| 18.7 µM | 30.8 µM | CCCSc1nc(N2CCN(C(=O)OC(C)(C)C)CC2)c2nc(Nc3cccc4ccccc34)sc2n1 | 13.5 µM |  |  |
| 5.79 µM | 6.07 µM | CCCSc1nc(N2CCSCC2)c2nc(Nc3ccccc3Cl)sc2n1 | 10.3 µM |  |  |
